Here are results for one sequence from patent US8278265B2, “Methods, kits and compositions comprising crotamine” (Fundacao de Amparo a Pesquisa do Estado de Sao Paulo—FAPESP, priority 2005, dated 2012).

Data set [1] has as its system human fibroblasts. The experiment in a line: In vitro incorporation of Cy3-crotamine in human fibroblasts. The class given is cell-based. To be noted: after one hour of incubation, FIG. 2A. How it is done:
Embrionary stem cells (ES) from mice, line USP-1 (Soukoyan, M. A., Kerkis, A. Y., Mello, M. R. B., Kerkis, I. E., Visintin, J. A., Pereira, L. V. (2002), Establishment of New Murine Embryonic Stem Cell Lines for the Generation of Mouse Models of Human Genetic Diseases, Braz. J. Med. Biol. Res. 35, 535-542) in the passage 8-10 were cultured on a layer of γ-irradiated embrionary fibroblasts of mice, kept in DMEM (Gibco, U.S.A.), supplemented with 15% FCS (Gibco, U.S.A.), 1 mM sodium piruvate, 1% non-essential amino acids, 0.1 mM β-mercaptoethanol and 1×103 U/ml murine Leukemia Inhibitor Factor (LIF) (ESGRO-LIF, Gibco). Human lymphoblastoids and primary fibroblasts were cultivated in DMEM and in RPMI, respectively, supplemented with 10% FCS with no antibiotics. Cultures were kept under humid atmosphere at 37° C. and 5% CO2.
In vitro assay: Semiconffluent cultures of pluripotent and differentiation ES cells (homogeneous cell population), as well as other cell cultures of normal and tumor origin, were kept in small laminar slides placed in 24-well plates containing appropriate culture medium. Cells were incubated for 2-3 minutes to 72 hours in the presence of Cy3-crotamine, under concentrations between 10 μM and 0.01 μM, or as control, just in the presence of the dye agent Cy3 diluted in 1 ml PBS (control). […]

Data set [2] concerns chromosomes. The data set is described as follows: Chromosome analysis. It is filed as cell-based. Particulars: 1 μM, compared with DAPI or 5-BrDU staining. How it is done: 1 μM crotamine conjugated to Cy3 was added to the culture of ES-USP1 cells, human lymphoblastoids and primary fibroblasts for 1, 3, 6 and 24 hours. Cells were collected and treated according to the routine cytogenetic protocol, with no addition of colchicine. Digital images were obtained with refrigerated CCD (PCO, VC44) and processed by using ISIS software (MetaSystem).

In data set [3] the test system is actively proliferating cells. The data set is described as follows: Marker for actively proliferating cells (BrDU co-labeling). It is filed as cell-based, mice. To be noted: FIG. 8E-H. The text has this:
The hanging drop method was used, with some amendments, to induce the differentiation of ES cells from USP-1 line (Wobus, A. M., Wallukat, G., Hescheler, J. (1991), Pluripotent Mouse Embryonic Cells are Able to Differentiate into Cardiomyocytes Expressing Chronotropic Responses to Adrenergic and Cholinergic Agents and Ca^2+ Channel Blockers, Differentiation 48, 173-182). Briefly, ES cell suspensions without fibroblasts were obtained, collected with 0.25% trypsin/EDTA (Gibco, U.S.A.). Said suspension was diluted up to 3.5×10^4 cells/ml and dropped by using a micropipette (25 μl per drop) on the Petri dish cap (10 cm). Drops adhered to the surface were turned upside down over the plate already containing 5 ml PBS. After three days in a CO2 oven, in the hanging drop culture in appropriate culture medium for ES, with no LIF, aggregates are formed, known as embryonic bodies (EBs). EBs were later transferred to another plate (35 mm) with a 1% agarose layer, and maintained in the CO2 oven at 37° C. On the fifth day, EBs were transferred to microscope slides, on another Petri dish, where they adhered and started differentiating into a monolayer.
Embryonic bodies, obtained according to the protocol as described above, after three days, adhered to small glass slides. […] Microscope slides were assembled in a PBS/glycerol solution (1:1) and analysed in a confocal microscope. […]

Data set [4] deals with linear and/or circular double strand DNA. The experiment in a line: DNA-peptide interaction by agarose gel electrophoresis (gel shift assay). The class given is binding. To be noted: various molar proportions, FIG. 6. Here is the method: The interaction between crotamine and DNA was analysed by an interference assay for DNA migration in agarose gel. 1 μg DNA and an increasing concentration of crotamine was added in a total volume of 25 μl, containing 150 mM NaCl. Twenty minutes after the mixture was prepared, samples were analysed by agarose gel electrophoresis (1%), using Tris-borate-EDTA buffer, followed by visualization by staining the nucleic acid with the ethidium bromide.
The formation of the complex between the peptide and DNA was analysed by the electrophoretic mobility of the complex in agarose gel (1%, w/v) by varying the molar proportions between the peptide and the double-strand DNA. Tests were made by mixing plasmid DNA (2 or 4 μg) with 10 μg of pure crotamine, in the presence or absence of 150 mM NaCl, which were applied on agarose gel immersed in Tris borate-EDTA buffer. DNA was then observed after staining with ethidium bromide and using UV light transiluminator. Gel documentation after electrophoresis was made by using an image digitizer (model FLA3000). This system of electrophoresis allows to observe changes in the migration pattern (migration delay) due to the neutralization of nucleic acid by cationic peptide present and/or due to the formation of larger complexes between crotamine and DNA (FIG. 6). […]
On the technique in general: A gel shift assay detects complexes by their altered migration in electrophoresis.

Data set [5] concerns human limfoblastoids, B16 murine melanoma cells, HCT116 colon cancer cells, human mesenchymal stem cells from bone marrow and dental pulp. The experiment in a line: In vitro transfection with crotamine-DNA aggregates. The class given is cell-based.
In data set [6] the test system is mice. Particulars: injected intraperitoneally; cited from earlier work.

“YKQCHKKGGHCFPKEKICLPPSSDFGKMDCRWRWK CCKKGSG (YKQCHKKGGHCFPKEKICLPPSSDFGKMDCRWRWKCCKKGSG; UniProt Q9PWF3 23-64, looked up) [crotamine]”: the “labeling of human fibroblasts” value in data set [1] is recorded as “intensively marked”. For the same sequence, in data set [2], the binding to chromosomes entry was “binds to chromosomes in the metaphase”. The “co-location with BrDU staining in actively proliferating ES cells” value in data set [3] is recorded as “co-location”. Further, the “effect of complex formation on electrophoretic mobility in agarose gel” value in data set [4] is listed as “interfere in the electrophoretic mobility”. The “result of in vitro transfection” value in data set [5] is “positive results”. The “time to paralysis of the hind legs” value in data set [6] is reported as “less than 15 minutes”.
